# Measured values taken from ChEMBL document CHEMBL1134243, “2-[N1-2-pyrimidyl-aminobenzenesulfonamido] ethyl 4-bis(2-chloroethyl) aminophenyl butyrate: a potent antitumor agent” (Bioorg Med Chem Lett, 2001).
# Columns and labels:
# [1] = In vivo antitumor activity against murine S-180 sarcoma at a dose of 2.5 mg/kg administered intraperitoneally 7qd in mice; Body wt initial/Final = 19.9/23.4; assay type: functional, Mus musculus; details: route intraperitoneal
# [2] = In vivo antitumor activity against murine S-180 sarcoma at a dose of 13 mg/kg administered intraperitoneally 7qd in Male TA1 mice; 9 survived out of 10 mice; assay type: functional, Mus musculus; details: route intraperitoneal
# [3] = In vivo antitumor activity against murine S-180 sarcoma at a dose of 2.5 mg/kg administered intraperitoneally 7qd in mice expressed as percent inhibition; assay type: functional; details: Mus musculus, S-180, ip, route intraperitoneal
# [4] = In vivo antitumor activity against murine S-180 sarcoma at a dose of 3.3 mg/kg administered intraperitoneally 7qd in mice; Body wt initial/Final = 19.6/22.5; assay type: functional, Mus musculus; details: route intraperitoneal
# [5] = In vivo antitumor activity against murine S-180 sarcoma at a dose of 2.5 mg/kg administered intraperitoneally 7qd in Male TA1 mice; 10 survived out of 10 mice; assay type: functional, Mus musculus; details: route intraperitoneal
# [6] = In vivo antitumor activity against murine S-180 sarcoma at a dose of 4.8 mg/kg administered intraperitoneally 7qd in mice; Body wt initial/Final = 19.8/20.7; assay type: functional, Mus musculus; details: route intraperitoneal
# [7] = In vivo antitumor activity against murine S-180 sarcoma at a dose of 6.5 mg/kg administered intraperitoneally 7qd in mice expressed effect on tumor weight; assay type: functional, Mus musculus; details: route intraperitoneal
# [8] = In vivo antitumor activity against murine S-180 sarcoma at a dose of 4.8 mg/kg administered intraperitoneally 7qd in Male TA1 mice; 10 survived out of 10 mice; assay type: functional, Mus musculus; details: route intraperitoneal
# [9] = Lethal dose at a concentration of 0.225 mmol/kg in mice administered intraperitoneally; assay type: toxicity, organism-based; details: mouse, in vivo, ip
# [10] = Antitumor activity against murine S-180 sarcoma at dose of 0.016(mmol/kg); assay type: functional, Mus musculus
# [11] = In vivo antitumor activity against murine S-180 sarcoma at a dose of 3.3 mg/kg administered intraperitoneally 7qd in mice expressed as percent inhibition; assay type: functional; details: Mus musculus, S-180, ip, route intraperitoneal
# [12] = In vivo antitumor activity against murine S-180 sarcoma at a dose of 2.5 mg/kg administered intraperitoneally 7qd in mice expressed effect on tumor weight; assay type: functional, Mus musculus; details: route intraperitoneal
# [13] = In vivo antitumor activity against murine S-180 sarcoma at a dose of 13 mg/kg administered intraperitoneally 7qd in mice expressed as percent inhibition; assay type: functional; details: Mus musculus, S-180, ip, route intraperitoneal
# [14] = In vivo antitumor activity against murine S-180 sarcoma at a dose of 13 mg/kg administered intraperitoneally 7qd in mice expressed effect on tumor weight; assay type: functional, Mus musculus; details: route intraperitoneal
# [15] = In vivo antitumor activity against murine S-180 sarcoma at a dose of 3.3 mg/kg administered intraperitoneally 7qd in mice expressed effect on tumor weight; assay type: functional, Mus musculus; details: route intraperitoneal
# [16] = In vivo antitumor activity against murine S-180 sarcoma at a dose of 9.6 mg/kg administered intraperitoneally 7qd in mice expressed effect on tumor weight; assay type: functional, Mus musculus; details: route intraperitoneal
# [17] = In vivo antitumor activity against murine S-180 sarcoma at a dose of 13 mg/kg administered intraperitoneally 7qd in mice; Body wt initial/Final = 19.8/18.0; assay type: functional, Mus musculus; details: route intraperitoneal
# [18] = In vivo antitumor activity against murine S-180 sarcoma at a dose of 6.5 mg/kg administered intraperitoneally 7qd in mice expressed as percent inhibition; assay type: functional; details: Mus musculus, S-180, ip, route intraperitoneal
# [19] = In vivo antitumor activity against murine S-180 sarcoma at a dose of 9.6 mg/kg administered intraperitoneally 7qd in mice; Body wt initial/Final = 19.6/18.3; assay type: functional, Mus musculus; details: route intraperitoneal
# Mus musculus [20] = experiment: Antitumor activity against murine S-180 sarcoma at dose of LD50 X 1/20 equal toxicity; assay type: functional
# [21] = In vivo antitumor activity against murine S-180 sarcoma at a dose of 9.6 mg/kg administered intraperitoneally 7qd in mice expressed as percent inhibition; assay type: functional; details: Mus musculus, S-180, ip, route intraperitoneal
# Mus musculus [22] = experiment: Antitumor activity against murine S-180 sarcoma at dose of LD50 X 1/40 equal toxicity; assay type: functional
# [23] = Therapeutic Index was determined; details: read-out: TI
# [24] = In vivo antitumor activity against murine S-180 sarcoma at a dose of 9.6 mg/kg administered intraperitoneally 7qd in Male TA1 mice; 9 survived out of 10 mice; assay type: functional, Mus musculus; details: route intraperitoneal
# [25] = In vivo antitumor activity against murine S-180 sarcoma at a dose of 4.8 mg/kg administered intraperitoneally 7qd in mice expressed as percent inhibition; assay type: functional; details: Mus musculus, S-180, ip, route intraperitoneal
# [26] = In vivo antitumor activity against murine S-180 sarcoma at a dose of 4.8 mg/kg administered intraperitoneally 7qd in mice expressed effect on tumor weight; assay type: functional, Mus musculus; details: route intraperitoneal
# [27] = Antitumor activity against murine S-180 sarcoma at dose of 0.008(mmol/kg); assay type: functional, Mus musculus
# [28] = Antitumor activity against murine S-180 sarcoma at dose of 0.022(mmol/kg); assay type: functional, Mus musculus
# [29] = In vivo antitumor activity against murine S-180 sarcoma at a dose of 6.5 mg/kg administered intraperitoneally 7qd in Male TA1 mice; 10 survived out of 10 mice; assay type: functional, Mus musculus; details: route intraperitoneal
# [30] = In vivo antitumor activity against murine S-180 sarcoma at a dose of 6.5 mg/kg administered intraperitoneally 7qd in mice; Body wt initial/Final = 19.8/19.5; assay type: functional, Mus musculus; details: route intraperitoneal
# Mus musculus [31] = experiment: Antitumor activity against murine S-180 sarcoma at dose of LD50 X 1/10 equal toxicity; assay type: functional
# [32] = In vivo antitumor activity against murine S-180 sarcoma at a dose of 3.3 mg/kg administered intraperitoneally 7qd in Male TA1 mice; 10 survived out of 10 mice; assay type: functional, Mus musculus; details: route intraperitoneal
# [33] = Antitumor activity against murine S-180 sarcoma at dose of 0.004(mmol/kg); assay type: functional, Mus musculus
# [34] = In vivo antitumor activity against murine S-180 sarcoma at a dose of 6.8 mg/kg administered intraperitoneally 7qd in Male TA1 mice; 9 survived out of 10 mice; assay type: functional, Mus musculus; details: route intraperitoneal
# [35] = In vivo antitumor activity against murine S-180 sarcoma at a dose of 6.8 mg/kg administered intraperitoneally 7qd in mice expressed effect on tumor weight; assay type: functional, Mus musculus; details: route intraperitoneal
# [36] = In vivo antitumor activity against murine S-180 sarcoma at a dose of 1.3 mg/kg administered intraperitoneally 7qd in mice; Body wt initial/Final = 19.9/23.4; assay type: functional, Mus musculus; details: route intraperitoneal
# [37] = In vivo antitumor activity against murine S-180 sarcoma at a dose of 5 mg/kg administered intraperitoneally 7qd in mice; Body wt initial/Final = 19.7/19.1; assay type: functional, Mus musculus; details: route intraperitoneal
# [38] = In vivo antitumor activity against murine S-180 sarcoma at a dose of 5 mg/kg administered intraperitoneally 7qd in Male TA1 mice; 9 survived out of 10 mice; assay type: functional, Mus musculus; details: route intraperitoneal
# [39] = In vivo antitumor activity against murine S-180 sarcoma at a dose of 2.5 mg/kg administered intraperitoneally 7qd in mice; Body wt initial/Final = 20.0/21.3; assay type: functional, Mus musculus; details: route intraperitoneal
# [40] = In vivo antitumor activity against murine S-180 sarcoma at a dose of 5 mg/kg administered intraperitoneally 7qd in mice expressed as percent inhibition; assay type: functional; details: Mus musculus, S-180, ip, route intraperitoneal
# [41] = In vivo antitumor activity against murine S-180 sarcoma at a dose of 5 mg/kg administered intraperitoneally 7qd in mice expressed effect on tumor weight; assay type: functional, Mus musculus; details: route intraperitoneal
# [42] = In vivo antitumor activity against murine S-180 sarcoma at a dose of 6.8 mg/kg administered intraperitoneally 7qd in mice expressed as percent inhibition; assay type: functional; details: Mus musculus, S-180, ip, route intraperitoneal
# [43] = In vivo antitumor activity against murine S-180 sarcoma at a dose of 1.3 mg/kg administered intraperitoneally 7qd in mice expressed effect on tumor weight; assay type: functional, Mus musculus; details: route intraperitoneal
# [44] = Lethal dose at a concentration of 0.163 mmol/kg in mice administered intraperitoneally; assay type: toxicity, organism-based; details: mouse, in vivo, ip
# [45] = In vivo antitumor activity against murine S-180 sarcoma at a dose of 1.3 mg/kg administered intraperitoneally 7qd in mice expressed as percent inhibition; assay type: functional; details: Mus musculus, S-180, ip, route intraperitoneal
# [46] = In vivo antitumor activity against murine S-180 sarcoma at a dose of 6.8 mg/kg administered intraperitoneally 7qd in mice; Body wt initial/Final = 19.8/18.4; assay type: functional, Mus musculus; details: route intraperitoneal
# [47] = In vivo antitumor activity against murine S-180 sarcoma at a dose of 1.3 mg/kg administered intraperitoneally 7qd in Male TA1 mice; 10 survived out of 10 mice; assay type: functional, Mus musculus; details: route intraperitoneal
smiles,measurement,setting,value
Nc1ccc(S(=O)(=O)N(CCOC(=O)CCCc2ccc(N(CCCl)CCCl)cc2)c2ncccn2)cc1,Body weight In. / Fi.,[1],19.9 g
same,Mice In. / Fi.,[2],9
same,inhibition in vivo at 2.5 mg/kg,[3],48%
same,Body weight In. / Fi.,[4],19.6 g
same,Mice In. / Fi.,[5],10
same,Body weight In. / Fi.,[6],19.8 g
same,Tumor weight,[7],0.57
same,Mice In. / Fi.,[8],10
same,LD50,[9],131 mg/kg
same,Antitumour activity,[10],76.9
same,inhibition in vivo at 3.3 mg/kg,[11],50.7%
same,Tumor weight,[12],1.15
same,inhibition in vivo at 13 mg/kg,[13],81.5%
same,Tumor weight,[14],0.41
same,Tumor weight,[15],1.09
same,Tumor weight,[16],0.51
same,Body weight In. / Fi.,[17],19.8 g
same,inhibition in vivo at 6.5 mg/kg,[18],74.2%
same,Body weight In. / Fi.,[19],19.6 g
same,LD50 x 1/20,Mus musculus [20],74.2
same,inhibition in vivo at 9.6 mg/kg,[21],76.9%
same,LD50 x 1/40,Mus musculus [22],50.7
same,selectivity ratio,[23],47.5
same,Mice In. / Fi.,[24],9
same,inhibition in vivo at 4.8 mg/kg,[25],63.4%
same,Tumor weight,[26],0.81
same,Antitumour activity,[27],63.4
same,Antitumour activity,[28],81.5
same,Mice In. / Fi.,[29],10
same,Body weight In. / Fi.,[30],19.8 g
same,LD50 x 1/10,Mus musculus [31],81.5
same,Mice In. / Fi.,[32],10
same,Antitumour activity,[33],47.9
O=C(O)CCCc1ccc(N(CCCl)CCCl)cc1 [CHLORAMBUCIL],Mice In. / Fi.,[34],9
same,Tumor weight,[35],0.5
same,Body weight In. / Fi.,[36],19.9 g
same,inhibition in vivo at 2.5 mg/kg,[3],52.9%
same,Body weight In. / Fi.,[37],19.7 g
same,Mice In. / Fi.,[5],10
same,Mice In. / Fi.,[38],9
same,Body weight In. / Fi.,[39],20 g
same,Antitumour activity,[10],73.3
same,inhibition in vivo at 5 mg/kg,[40],73.3%
same,Tumor weight,[12],1.04
same,LD50 x 1/20,Mus musculus [20],52.9
same,LD50 x 1/40,Mus musculus [22],37.1
same,Tumor weight,[41],0.59
same,inhibition in vivo at 6.8 mg/kg,[42],77.4%
same,selectivity ratio,[23],22.8
same,Tumor weight,[43],1.39
same,LD50,[44],49.6 mg/kg
same,inhibition in vivo at 1.3 mg/kg,[45],37.1%
same,Body weight In. / Fi.,[46],19.8 g
same,Mice In. / Fi.,[47],10
same,Antitumour activity,[27],52.9
same,Antitumour activity,[28],77.4
same,LD50 x 1/10,Mus musculus [31],73.3
same,Antitumour activity,[33],37.1
